The values that follow come from BindingDB's records for doi:10.1016/j.bmcl.2006.01.056 (Bristol-Myers Squibb, 2006).

Molecules are shown by their SMILES.

This assay addresses T1, Kinesin-like protein KIF11 (Homo sapiens, UniProt P52732).
T1 sequence (P52732 whole entry): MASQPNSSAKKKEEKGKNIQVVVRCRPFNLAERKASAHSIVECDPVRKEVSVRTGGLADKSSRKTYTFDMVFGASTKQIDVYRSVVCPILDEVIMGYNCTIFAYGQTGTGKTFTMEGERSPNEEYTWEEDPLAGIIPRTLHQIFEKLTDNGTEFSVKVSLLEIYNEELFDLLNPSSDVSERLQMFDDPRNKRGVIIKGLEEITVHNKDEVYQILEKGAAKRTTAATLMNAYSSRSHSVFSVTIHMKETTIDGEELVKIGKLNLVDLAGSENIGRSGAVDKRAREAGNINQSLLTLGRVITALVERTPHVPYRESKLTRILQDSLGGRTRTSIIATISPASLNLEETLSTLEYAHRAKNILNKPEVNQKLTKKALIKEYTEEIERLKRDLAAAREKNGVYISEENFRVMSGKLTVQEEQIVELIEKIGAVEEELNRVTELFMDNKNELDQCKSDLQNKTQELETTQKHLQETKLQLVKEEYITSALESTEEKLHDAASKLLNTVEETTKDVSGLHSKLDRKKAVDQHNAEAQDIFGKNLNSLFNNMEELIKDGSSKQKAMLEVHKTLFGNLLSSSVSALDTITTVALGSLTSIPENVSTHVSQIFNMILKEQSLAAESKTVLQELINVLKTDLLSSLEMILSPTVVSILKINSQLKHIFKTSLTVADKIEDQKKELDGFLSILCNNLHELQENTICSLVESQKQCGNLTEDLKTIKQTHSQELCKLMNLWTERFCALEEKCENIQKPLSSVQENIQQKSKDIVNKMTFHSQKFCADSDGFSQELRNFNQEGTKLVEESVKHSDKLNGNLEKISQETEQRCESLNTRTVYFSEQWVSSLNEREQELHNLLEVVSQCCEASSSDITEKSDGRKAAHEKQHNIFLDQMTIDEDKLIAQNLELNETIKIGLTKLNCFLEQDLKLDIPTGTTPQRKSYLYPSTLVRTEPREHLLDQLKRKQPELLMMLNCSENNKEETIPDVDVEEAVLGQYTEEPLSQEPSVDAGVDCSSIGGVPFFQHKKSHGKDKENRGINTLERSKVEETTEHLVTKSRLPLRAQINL
The experiment in a line: Microtubule-Activated Eg5 ATPase Assay. How it is done:
ATPase assays with Eg5 motor domain protein were performed using Kinase-Glo Luminescent Kit as described by the manufacturer (Promega).

Usually IC50 stands for the concentration that gives 50% inhibition. Low values mean higher potency, high ones lower potency. Compound `CN(C)C(=O)N1Cc2c(ccc3ccccc23)C(c2cccc(O)c2)C1` (stereo unspecified) [6-(3-hydroxyphenyl)-N,N-dimethyl-4-azatricyclo[8.4.0.0^{2,7}]tetradeca-1(10),2(7),8,11,13-pentaene-4-carboxamide] yielded an IC50 of 0.477 µM.
